Data as given in patent US20060069132A1, “Azolecarboxamide herbicides” (priority 2004, published 2006).

How the values were obtained:
barnyardgrass [1] = experiment: Test A pre-/postemergence herbicide test; assay type: in vivo, Echinochloa crus-galli
Method in brief: (§1)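 Seeds sown in sandy loam received a preemergence directed soil spray of compound in non-phytotoxic solvent with surfactant; postemergence plants (2–10 cm, one- to two-leaf stage) were sprayed to runoff at the same time. After ~10 days in greenhouse, injury was rated visually versus untreated controls (0 = no effect, 100 = complete control).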

large crabgrass [2] = experiment: Test A pre-/postemergence herbicide test; assay type: in vivo, Digitaria sanguinalis
Method in brief: as §1

giant foxtail [3] = experiment: Test A pre-/postemergence herbicide test; assay type: in vivo, Setaria faberi
Method in brief: as §1

morningglory [4] = experiment: Test A pre-/postemergence herbicide test; assay type: in vivo, Ipomoea spp.
Method in brief: as §1

redroot pigweed = experiment: Test A pre-/postemergence herbicide test; assay type: in vivo, Amaranthus retroflexus
Method in brief: as §1

velvetleaf [5] = experiment: Test A pre-/postemergence herbicide test; assay type: in vivo, Abutilon theophrasti
Method in brief: as §1

barnyardgrass [6] = experiment: Test B pre-/postemergence herbicide test; assay type: in vivo, Echinochloa crus-galli; conditions: for Barnyardgrass plant response rating: postemergence, visual rating, scale 0 (no effect) to 100 (complete control)
Method in brief: (§2)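 Greenhouse pot assay with simultaneous preemergence (treated seed) and postemergence (2–18 cm seedlings) applications of surfactant-containing, non-phytotoxic solvent formulations. Response scored visually 13–15 days later on a 0–100 scale, 100 meaning complete control.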

Surinam grass = experiment: Test B pre-/postemergence herbicide test; assay type: in vivo, Urochloa decumbens; conditions: for Surinam Grass plant response rating: postemergence, visual rating, scale 0 (no effect) to 100 (complete control)
Method in brief: as §2

cocklebur = experiment: Test B pre-/postemergence herbicide test; assay type: in vivo, Xanthium strumarium; conditions: for Cocklebur plant response rating: postemergence, visual rating, scale 0 (no effect) to 100 (complete control)
Method in brief: as §2

corn = experiment: Test B pre-/postemergence herbicide test; assay type: in vivo, Zea mays; conditions: for Corn plant response rating: postemergence, visual rating, scale 0 (no effect) to 100 (complete control)
Method in brief: as §2

large crabgrass [7] = experiment: Test B pre-/postemergence herbicide test; assay type: in vivo, Digitaria sanguinalis; conditions: for Crabgrass, Large plant response rating: postemergence, visual rating, scale 0 (no effect) to 100 (complete control)
Method in brief: as §2

giant foxtail [8] = experiment: Test B pre-/postemergence herbicide test; assay type: in vivo, Setaria faberi; conditions: for Foxtail, Giant plant response rating: postemergence, visual rating, scale 0 (no effect) to 100 (complete control)
Method in brief: as §2

lambsquarters = experiment: Test B pre-/postemergence herbicide test; assay type: in vivo, Chenopodium album; conditions: for Lambsquarters plant response rating: postemergence, visual rating, scale 0 (no effect) to 100 (complete control)
Method in brief: as §2

morningglory [9] = experiment: Test B pre-/postemergence herbicide test; assay type: in vivo, Ipomoea coccinea; conditions: for Morningglory plant response rating: postemergence, visual rating, scale 0 (no effect) to 100 (complete control)
Method in brief: as §2

pigweed = experiment: Test B pre-/postemergence herbicide test; assay type: in vivo, Amaranthus retroflexus; conditions: for Pigweed plant response rating: postemergence, visual rating, scale 0 (no effect) to 100 (complete control)
Method in brief: as §2

rice [10] = experiment: Test B pre-/postemergence herbicide test; assay type: in vivo, Oryza sativa; conditions: preemergence
Method in brief: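 Species tested were Echinochloa crus-galli, Ipomoea coccinea, Xanthium strumarium and Oryza sativa, treated both before emergence and at the 1- to 4-leaf stage; rice and barnyardgrass were also tested under flooding at 2 leaves. Greenhouse incubation lasted 13–15 days before visual 0–100 scoring.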

velvetleaf [11] = experiment: Test B pre-/postemergence herbicide test; assay type: in vivo, Abutilon theophrasti; conditions: for Velvetleaf plant response rating: postemergence, visual rating, scale 0 (no effect) to 100 (complete control)
Method in brief: as §2

blackgrass = experiment: Test B postemergence herbicide test; assay type: in vivo, Alopecurus myosuroides; conditions: postemergence, visual rating, scale 0 (no effect) to 100 (complete control)
Method in brief: (§3)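 Greenhouse test; postemergence application to plants at 1–4 leaves (2–18 cm); paddy species at 2 leaves; evaluated visually vs controls at 13–15 days; scale 0–100 (100 = complete control).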

wheat = experiment: Test B postemergence herbicide test; assay type: in vivo, Triticum aestivum; set-up: key to Wheat plant response rating: 0 = no effect, 100 = complete control; conditions: postemergence, visual rating, scale 0 (no effect) to 100 (complete control)
Method in brief: (§4)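 Read-out: visual comparison with controls, scored 0 to 100, where 100 means complete control and 0 no effect. Formulated chemicals were applied postemergence to plants 2–18 cm tall (1- to 4-leaf), or to flooded-paddy plants at the 2-leaf stage, then held 13 to 15 days under glass.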

wild oat = experiment: Test B postemergence herbicide test; assay type: in vivo, Avena fatua; conditions: postemergence, visual rating, scale 0 (no effect) to 100 (complete control)
Method in brief: as §4

rice [12] = experiment: Test B flooded paddy test; assay type: in vivo, Oryza sativa; conditions: 1000 g ai/ha, visual rating, scale 0 to 100 (0 no effect, 100 complete control), 13 to 15 days
Method in brief: as §3

[13] = tested on: small flower umbrella sedge; experiment: Test B flooded paddy test; assay type: in vivo, Cyperus difformis; conditions: 1000 g ai/ha, visual rating, scale 0 to 100 (0 no effect, 100 complete control), 13 to 15 days
Method in brief: as §3

ducksalad = experiment: Test B flooded paddy test; assay type: in vivo, Heteranthera limosa; conditions: 1000 g ai/ha, visual rating, scale 0 to 100 (0 no effect, 100 complete control), 13 to 15 days
Method in brief: as §3

barnyardgrass [14] = experiment: Test B flooded paddy test; assay type: in vivo, Echinochloa crus-galli; conditions: 1000 g ai/ha, visual rating, scale 0 to 100 (0 no effect, 100 complete control), 13 to 15 days
Method in brief: as §3

[15] = Postemergence, 500 g ai/ha, 0 to 100 scale, 0 no effect, 100 complete control
[16] = Postemergence, 2000 g ai/ha, 0 to 100 scale, 0 no effect, 100 complete control
[17] = Preemergence, 2000 g ai/ha, visual rating, 0 to 100 scale (0 no effect, 100 complete control)
[18] = preemergence, 500 g ai/ha, visual injury, 0 to 100 scale (0 no effect, 100 complete control)
[19] = 125 g ai/ha, 0 = no effect, 100 = complete control, preemergence
[20] = 500 g ai/ha, visual rating 0-100, 0 no effect, 100 complete control, preemergence

C#CCNC(=O)c1cccc(NC(=O)c2sc(C(C)(C)C)nc2C)c1 [Compound 203]
Barnyardgrass plant response rating (barnyardgrass [1]; [15]): 10
Plant response rating, Barnyardgrass (barnyardgrass [1]; [16]): 30
Barnyardgrass plant response rating (barnyardgrass [1]; [17]): 60
Barnyardgrass plant response rating (barnyardgrass [1]; [18]): 10
Crabgrass, Large plant response rating (large crabgrass [2]; [15]): 10
Plant response rating, Crabgrass, Large (large crabgrass [2]; [16]): 15
Crabgrass, Large plant response rating (large crabgrass [2]; [17]): 75
Crabgrass, Large plant response rating (large crabgrass [2]; [18]): 50
Foxtail, Giant plant response rating (giant foxtail [3]; [15]): 10
Plant response rating, Foxtail, Giant (giant foxtail [3]; [16]): 20
Foxtail, Giant plant response rating (giant foxtail [3]; [17]): 75
Foxtail, Giant plant response rating (giant foxtail [3]; [18]): 30
Morningglory plant response rating (morningglory [4]; [15]): 50
Plant response rating, Morningglory (morningglory [4]; [16]): 55
Morningglory plant response rating (morningglory [4]; [17]): 15
Morningglory plant response rating (morningglory [4]; [18]): 10
Pigweed plant response rating (redroot pigweed; [15]): 35
Plant response rating, Pigweed (redroot pigweed; [16]): 80
Pigweed plant response rating (redroot pigweed; [17]): 90
Pigweed plant response rating (redroot pigweed; [18]): 90
Velvetleaf plant response rating (velvetleaf [5]; [15]): 10
Plant response rating, Velvetleaf (velvetleaf [5]; [16]): 10
Velvetleaf plant response rating (velvetleaf [5]; [17]): 35
Velvetleaf plant response rating (velvetleaf [5]; [18]): 15
Barnyardgrass plant response rating (0 to 100 scale) (barnyardgrass [6]; [19]): 0
Plant response rating, Barnyardgrass (barnyardgrass [6]; [20]): 10
Barnyardgrass plant response rating (barnyardgrass [6]; 125 g ai/ha): 0
Barnyardgrass plant response rating (barnyardgrass [6]; 500 g ai/ha): 0
Surinam Grass plant response rating (0 to 100 scale) (Surinam grass; [19]): 0
Plant response rating, Surinam Grass (Surinam grass; [20]): 0
Surinam Grass plant response rating (Surinam grass; 125 g ai/ha): 10
Surinam Grass plant response rating (Surinam grass; 500 g ai/ha): 20
Cocklebur plant response rating (0 to 100 scale) (cocklebur; [19]): 0
Plant response rating, Cocklebur (cocklebur; [20]): 10
Cocklebur plant response rating (cocklebur; 125 g ai/ha): 0
Cocklebur plant response rating (cocklebur; 500 g ai/ha): 10
Corn plant response rating (0 to 100 scale) (corn; [19]): 0
Plant response rating, Corn (corn; [20]): 0
Corn plant response rating (corn; 125 g ai/ha): 0
Corn plant response rating (corn; 500 g ai/ha): 10
Crabgrass, Large plant response rating (0 to 100 scale) (large crabgrass [7]; [19]): 30
Plant response rating, Crabgrass, Large (large crabgrass [7]; [20]): 80
Crabgrass, Large plant response rating (large crabgrass [7]; 125 g ai/ha): 0
Crabgrass, Large plant response rating (large crabgrass [7]; 500 g ai/ha): 10
Foxtail, Giant plant response rating (0 to 100 scale) (giant foxtail [8]; [19]): 0
Plant response rating, Foxtail, Giant (giant foxtail [8]; [20]): 10
Foxtail, Giant plant response rating (giant foxtail [8]; 125 g ai/ha): 0
Foxtail, Giant plant response rating (giant foxtail [8]; 500 g ai/ha): 10
Lambsquarters plant response rating (0 to 100 scale) (lambsquarters; [19]): 10
Plant response rating, Lambsquarters (lambsquarters; [20]): 30
Lambsquarters plant response rating (lambsquarters; 125 g ai/ha): 10
Lambsquarters plant response rating (lambsquarters; 500 g ai/ha): 50
Morningglory plant response rating (0 to 100 scale) (morningglory [9]; [19]): 0
Plant response rating, Morningglory (morningglory [9]; [20]): 10
Morningglory plant response rating (morningglory [9]; 125 g ai/ha): 0
Morningglory plant response rating (morningglory [9]; 500 g ai/ha): 30
Pigweed plant response rating (0 to 100 scale) (pigweed; [19]): 10
Plant response rating, Pigweed (pigweed; [20]): 90
Pigweed plant response rating (pigweed; 125 g ai/ha): 0
Pigweed plant response rating (pigweed; 500 g ai/ha): 10
Rice plant response rating (0 to 100 scale) (rice [10]; 125 g ai/ha, 0 = no effect, 100 = complete control): 0
Plant response rating, Rice (rice [10]; 500 g ai/ha, visual rating 0-100, 0 no effect, 100 complete control): 0
Velvetleaf plant response rating (0 to 100 scale) (velvetleaf [11]; [19]): 0
Plant response rating, Velvetleaf (velvetleaf [11]; [20]): 20
Velvetleaf plant response rating (velvetleaf [11]; 125 g ai/ha): 0
Velvetleaf plant response rating (velvetleaf [11]; 500 g ai/ha): 10
Blackgrass plant response rating (blackgrass; 125 g ai/ha): 0
Blackgrass plant response rating (blackgrass; 500 g ai/ha): 0
Wheat plant response rating (wheat; 125 g ai/ha): 0
Wheat plant response rating (wheat; 500 g ai/ha): 0
Oat, Wild plant response rating (wild oat; 125 g ai/ha): 0
Oat, Wild plant response rating (wild oat; 500 g ai/ha): 10
Rice plant response rating (rice [12]): 0
Sedge, Umbrella plant response rating [13]: 0
Ducksalad plant response rating (ducksalad): 0
Barnyardgrass plant response rating (barnyardgrass [14]): 0
